Reference: patent US11154563B2, “Immunoproteasome inhibitors” (Principia Biopharma Inc., priority 2017, dated 2021)

Tests used:
[1] = target: immunoproteasome LMP7/B5i subunit (Homo sapiens, UniProt P20618+P28062); test: Caliper-based proteasome enzymatic activity assay, LMP7; assay type: biochemical; settings: human recombinant immunoproteasome 0.3 nM, FAM-peptide substrate 1 μM, 3 h at rt
Experimental: (§1) A Caliper-based proteasome assay (Caliper Life Sciences, Hopkinton, Mass.) was used to measure inhibition of the immunoproteasome LMP7/B5i subunit, the immunoproteasome LPM2/β1i subunit, and the constitutive proteasome β5c unit for a compound of Formula (I). For LMP7 and β5c, serial dilutions of test compounds were incubated with either human recombinant immunoprotcasome or constitutive proteasome (0.3 nM enzyme) and a carboxyfluorescein (FAM)-labeled peptide substrate FAM-TYETFKSIMKKSPF-NH2 (1 μM) at it for 3 h. The reaction was then terminated with a buffer containing the known proteasome inhibitor carfilzomib at a concentration of 5 uM. For LMP2, serial dilutions of test compounds were incubated with human recombinant immunoproteasome proteasome (0.3 nM enzyme) and a carboxyfluorescein (FAM)-labeled peptide substrate FAM-[…]-NH2 (1 μM) at rt for 2 h. The reaction was then terminated with a buffer containing the known proteasome inhibitor ixazomib at a concentration of 6.7 uM. The reaction buffer was 20 mM Hepes pH 7.4, 0.01% bovine serum albumin, 0.015% SDS, 0.5 mM EDTA, 1%0/DMSO. The peptide cleavage reaction product was quantified on a Caliper LabChip 3000. Percent inhibition was calculated for each compound dilution and the concentration that produced 50% inhibition was calculated. This value is presented as the IC50.

[2] = target: constitutive proteasome β5c unit (Homo sapiens, UniProt P20618+P28074); test: Caliper-based proteasome enzymatic activity assay, β5c; assay type: biochemical; settings: human recombinant constitutive proteasome 0.3 nM, FAM-peptide substrate 1 μM, 3 h at rt; read-out: β5c subunit IC50
Experimental: as §1

IC50 [1] [µM] | IC50 [2] [µM] | SMILES
0.0018 | 0.205 | CC(=O)N1CCN(C(C)(C)C=C(C#N)C(=O)N2CCC[C@@H]2COC(=O)N[C@@H](Cc2coc3ccccc23)B(O)O)CC1 [Example 53, ((R)-1-(((((R)-1-(4-(4-acetylpiperazin-1-yl)-2-cyano-4-methylpent-2-enoyl)pyrrolidin-2-yl)methoxy)carbonyl)amino)-2-(benzofuran-3-yl)ethyl)boronic acid]
0.0016 | 0.192 | CC(C)(C=C(C#N)C(=O)N1C[C@@H]2C[C@@H]2[C@@H]1COC(=O)N[C@@H](Cc1coc2ccccc12)B(O)O)N1CCC(F)(F)C1 [Example 54, ((R)-2-(benzofuran-3-yl)-1-(((((1S,2R,5R)-3-(2-cyano-4-(3,3-difluoropyrrolidin-1-yl)-4-methylpent-2-enoyl)-3-azabicyclo[3.1.0]hexan-2-yl)methoxy)carbonyl)amino)ethyl)boronic acid]
0.0025 | 0.225 | CN1CCN(C(C)(C)C=C(C#N)C(=O)N2CCC[C@@H]2COC(=O)N[C@@H](Cc2coc3ccccc23)B(O)O)CC1 [Example 55, ((R)-2-(benzofuran-3-yl)-1-(((((R)-1-(2-cyano-4-methyl-4-(4-methylpiperazin-1-yl)pent-2-enoyl)pyrrolidin-2-yl)methoxy)carbonyl)amino)ethyl)boronic acid]
0.0017 | 0.148 | CC(C)(C=C(C#N)C(=O)N1CC(F)(F)C[C@@H]1COC(=O)N[C@@H](Cc1coc2ccccc12)B(O)O)N1CCOCC1 [Example 56, ((R)-2-(benzofuran-3-yl)-1-(((((R)-1-(2-cyano-4-methyl-4-morpholinopent-2-enoyl)-4,4-difluoropyrrolidin-2-yl)methoxy)carbonyl)amino)ethyl)boronic acid]
0.0014 | 0.176 | C[C@H]1CC[C@H](COC(=O)N[C@@H](Cc2coc3ccccc23)B(O)O)N1C(=O)C(C#N)=CC(C)(C)N1CCOCC1 [Example 57, ((R)-2-(benzofuran-3-yl)-1-(((((2R,5S)-1-(2-cyano-4-methyl-4-morpholinopent-2-enoyl)-5-methylpyrrolidin-2-yl)methoxy)carbonyl)amino)ethyl)boronic acid]
0.0008 | 0.023 | CC(C)(C=C(C#N)C(=O)N1CCOC[C@@H]1COC(=O)N[C@@H](Cc1coc2ccccc12)B(O)O)N1CCOCC1 [Example 58, ((R)-2-(benzofuran-3-yl)-1-(((((R)-4-(2-cyano-4-methyl-4-morpholinopent-2-enoyl)morpholin-3-yl)methoxy)carbonyl)amino)ethyl)boronic acid]
0.0009 | 0.232 | CC(C)(C=C(C#N)C(=O)N1CCCC[C@@H]1COC(=O)N[C@@H](Cc1coc2ccccc12)B(O)O)N1CCN(C2COC2)CC1 [Example 60, ((R)-2-(benzofuran-3-yl)-1-(((((R)-1-(2-cyano-4-methyl-4-(4-(oxetan-3-yl)piperazin-1-yl)pent-2-enoyl)piperidin-2-yl)methoxy)carbonyl)amino)ethyl)boronic acid]
0.0014 | 1.49 | CC(C)(C)/C=C(\C#N)C(=O)N1CC(F)(F)C[C@@H]1COC(=O)N[C@@H](Cc1ccccc1)B(O)O [Example 61, ((R)-1-(((((R)-1-((E)-2-cyano-4,4-dimethylpent-2-enoyl)-4,4-difluoropyrrolidin-2-yl)methoxy)carbonyl)amino)-2-phenylethyl)boronic acid]
0.0016 | 0.205 | CC(C)(C=C(C#N)C(=O)N1CCCC[C@@H]1COC(=O)N[C@@H](Cc1coc2ccccc12)B(O)O)N1CCCC(F)(F)C1 [Example 62, ((R)-2-(benzofuran-3-yl)-1-(((((R)-1-(2-cyano-4-(3,3-difluoropiperidin-1-yl)-4-methylpent-2-enoyl)piperidin-2-yl)methoxy)carbonyl)amino)ethyl)boronic acid]
0.0014 | 0.23 | CC(C)(C=C(C#N)C(=O)N1CCCCC[C@@H]1COC(=O)N[C@@H](Cc1coc2ccccc12)B(O)O)N1CCOCC1 [Example 63, ((R)-2-(benzofuran-3-yl)-1-(((((R)-1-(2-cyano-4-methyl-4-morpholinopent-2-enoyl)-azepan-2-yl)methoxy)carbonyl)amino)ethyl)boronic acid]
0.0033 | 0.645 | CC(C)(C=C(C#N)C(=O)N1CCCCC[C@H]1COC(=O)N[C@@H](Cc1coc2ccccc12)B(O)O)N1CCOCC1 [Example 64, ((R)-2-(benzofuran-3-yl)-1-(((((S)-1-(2-cyano-4-methyl-4-morpholinopent-2-enoyl)azepan-2-yl)methoxy)carbonyl)amino)ethyl)boronic acid]
0.0023 | 0.06 | CC(C)(C=C(C#N)C(=O)N1CCOC[C@@H]1COC(=O)N[C@@H](Cc1coc2ccccc12)B(O)O)N1CCC(F)(F)C1 [Example 65, ((R)-2-(benzofuran-3-yl)-1-(((((R)-4-(2-cyano-4-(3,3-difluoropyrrolidin-1-yl)-4-methylpent-2-enoyl)morpholin-3-yl)methoxy)carbonyl)amino)ethyl)boronic acid]
0.0021 | 0.217 | CC(C)(C=C(C#N)C(=O)N1CCCC[C@@H]1COC(=O)N[C@@H](Cc1coc2ccccc12)B(O)O)N1CCC(F)(F)CC1 [Example 66, ((R)-2-(benzofuran-3-yl)-1-(((((R)-1-(2-cyano-4-(4,4-difluoropiperidin-1-yl)-4-methylpent-2-enoyl)piperidin-2-yl)methoxy)carbonyl)amino)ethyl)boronic acid]
0.0025 | 0.447 | CC(C)(C=C(C#N)C(=O)N1CCCCC[C@H]1COC(=O)N[C@@H](Cc1coc2ccccc12)B(O)O)N1CCC(F)(F)C1 [Example 68, ((R)-2-(benzofuran-3-yl)-1-(((((S)-1-(2-cyano-4-(3,3-difluoropyrrolidin-1-yl)-4-methylpent-2-enoyl)azepan-2-yl)methoxy)carbonyl)amino)ethyl)boronic acid]
0.0032 | 0.67 | CC(C)(C)C=C(C#N)C(=O)N1CCOC[C@@H]1COC(=O)N[C@@H](Cc1ccccc1)B(O)O [Example 69, ((R)-1-(((((R)-4-(2-cyano-4,4-dimethylpent-2-enoyl)morpholin-3-yl)methoxy)carbonyl)amino)-2-phenylethyl)boronic acid]
0.0065 | 1.84 | COc1ccc(C[C@H](NC(=O)OC[C@H]2CCCCN2C(=O)C(C#N)=CC(C)(C)C)B(O)O)cc1 [Example 70, ((R)-1-(((((R)-1-(2-cyano-4,4-dimethylpent-2-enoyl)piperidin-2-yl)methoxy)carbonyl)amino)-2-(4-methoxyphenyl)ethyl)boronic acid]
0.0045 | 1.66 | CC(C)(C=C(C#N)C(=O)N1CCC[C@]1(C)COC(=O)N[C@@H](Cc1coc2ccccc12)B(O)O)N1CCOCC1 [Example 71, ((R)-2-(benzofuran-3-1)-1-(((((R)-1-(2-cyano-4-methyl-4-morpholinopent-2-enoyl)-2-methylpyrrolidin-2-yl)methoxy)carbonyl)amino)ethyl)boronic acid]
0.0025 | 0.225 | CC(C)(C=C(C#N)C(=O)N1CCCCC[C@@H]1COC(=O)N[C@@H](Cc1coc2ccccc12)B(O)O)N1CCC(F)(F)C1 [Example 72, ((R)-2-(benzofuran-3-yl)-1-(((((R)-1-(2-cyano-4-(3,3-difluoropyrrolidin-1-yl)-4-methylpent-2-enoyl)azepan-2-yl)methoxy)carbonyl)amino)ethyl)boronic acid]
